Test results published in publication PMC4725915, “Ruthenium(II) Complexes with 2-Phenylimidazo[4,5-f][1,10]phenanthroline Derivatives that Strongly Combat Cisplatin-Resistant Tumor Cells” (Scientific Reports, 2016).

Legend:
A549 = test: MTT cytotoxicity assay, A549; assay type: cell-based, human; conditions: A549, 48 h, mean ± SD of three experiments
Method: (§1) Compounds 1–4 were evaluated against three tumor cell lines derived from different tissues, including the cervix (HeLa), lung (A549) and cisplatin-resistant lung (A549R) tissues. For comparison, the cytotoxicity of cisplatin was also evaluated. As a control, the toxicities of the complexes were also tested against the normal human cell line (LO2).
(§2) The human cervix carcinoma cell line (HeLa), the lung carcinoma cell lines (A549 and A549R), and the human hepatocyte cell line (LO2) were obtained from the Experimental Animal Center at Sun Yat-Sen University (Guangzhou, China). The cells were maintained in Dulbecco’s modified Eagle’s medium (DMEM, Gibco BRL) or Roswell Park Memorial Institute 1640 (RPMI 1640, Gibco BRL) medium supplemented with 10% fetal bovine serum (FBS, Gibco BRL), 100 μg/mL streptomycin, and 100 U/mL penicillin (Gibco BRL) in a humidified incubator under 5% CO2 and 20% O2 at 37 °C. To maintain the resistant phenotype, A549R cells were incubated with 5 μM cisplatin and cultured in drug-free medium for at least a week before use.
(§3) The cytotoxicity of the ruthenium complexes and cisplatin were determined by an MTT assay. Briefly, cells were seeded into 96-well microtiter plates at 1 × 10^4 cells per well and grown overnight at 37 °C in a 5% CO2 incubator; then, different concentrations of the complexes in cell culture medium were added to the cultures. The plates were then incubated in an incubator for 48 h under the same conditions. The stock MTT dye solution (15 μL, 5 mg/mL) was added to each well. After 4 h of incubation, the cultures were removed and 150 μL of DMSO was added to each well. The optical density of each well was measured on a microplate spectrophotometer at a wavelength of 595 nm.

A549R MCTSs [1] = test: Cytotoxicity test on 3D MCTSs (Cell TiterGlo ATP); assay type: cell-based, human; conditions: A549R MCTSs (~400 μm in diameter), 48 h
Method: (§4) MCTSs were cultured using the liquid overlay method. A549R cells in the exponential growth phase were dissociated by a trypsin/EDTA solution to gain single-cell suspensions. A number of 3000 diluted A549R cells were transferred to 1.5% agarose-coated transparent 96-well plates with 200 μL of DMEM containing 10% serum. The single cells formed MCTS aggregates approximately 400 μm in diameter after three days with 5% CO2 and 20% O2 at 37 °C. After formation of the MCTSs, each MCTS in a 96-well plate was imaged with a phase contrast microscope (Zeiss Axio Observer D1, Germany) using 10× objective to monitor their color, integrity, diameter, and volume.
A549R MCTSs (diameters ≈400 μm) were treated by carefully replacing 50% of the medium with drug-supplemented standard medium using an eight-channel pipet. In parallel, 50% of the medium containing solvent was replaced with solvent-free medium for the untreated MCTSs. Three A549R MCTSs were treated per condition and drug concentration; the DMSO volume was less than 1% (v/v). The MCTSs were then allowed to incubate for another 48 h. The cytotoxicities of the Ru(II) complexes toward the MCTSs were measured using ATP concentrations with a Cell TiterGlo kit (Promega). After 30 min of incubation, the MCTSs were carefully transferred into black-sided, flat-bottomed 96-well plates (Corning) and mixed with a pipet for luminescence measurements on an Infinite M200 PRO instrument (TECAN).

[2] = Distribution coefficient (log Po/w), flask-shaking, n-octanol/phosphate buffer; assay type: physicochemical; conditions: n-octanol / phosphate buffer pH 7.4, 37 °C; in words only (Figure S8)
Method: Distribution coefficients (log Po/w) were determined by liquid-liquid extraction between n-octanol (oil) and phosphate buffers (0.2 M, pH 7.4) with the flask-shaking method. N-Octanol and the buffer were mutually saturated with each other for at least 24 h before use. An aliquot of a ruthenium complex stock solution was added to the phosphate buffer concentrations at <10 mg/mL, and the mixture was shaken at 100 rpm for 24 h at 37 °C to allow for adequate partitioning. After the sample was centrifuged at 3000 rpm for 20 min, the aqueous layer was used for ruthenium analysis, and the Ru content in the aqueous layer was measured by ICP-MS and used to calculate the log Po/w.

[3] = system: cancer cell lines (HeLa, A549, A549R); test: MTT cytotoxicity, all tested cancer cell lines taken together; assay type: cell-based, human; conditions: 48 h, read-out: IC50 toward all the tested cancer cell lines
Method: as §1, §3

LO2 = test: MTT cytotoxicity assay, normal LO2 cells; assay type: cell-based; conditions: LO2 normal human cell line, 48 h
Method: as §1, §2, §3

HeLa = test: MTT cytotoxicity assay, HeLa; assay type: cell-based, human; conditions: 48 h, mean ± SD of three experiments
Method: as §1, §2, §3

A549R = test: MTT cytotoxicity assay, cisplatin-resistant A549R; assay type: cell-based, human; conditions: 48 h, mean ± SD of three experiments
Method: as §1, §2, §3

A549R cells [4] = test: Subcellular distribution study by ICP-MS; assay type: cell-based, human; conditions: 2.0 μM, 12 h
Method: (§5) To understand the high sensitivity of cancer cells to Ru(II) complexes, the extent of cellular uptake was investigated with inductively coupled plasma mass spectrometry (ICP-MS) by treating the HeLa, A549, A549R and LO2 cell lines with 2.0 μM concentrations of the Ru(II) complexes and cisplatin for 12 h. […] In this study, the cellular uptake and lipophilicity were distinctly correlated and followed the order: 4 >3 >2 >1. Complex 4 had the best accumulation, but the amount of Ru in LO2 cells was far less than that in the three cancer lines, indicating selective accumulation and improved efficiency for treating cancer. Cisplatin was taken up more efficiently by the sensitive cell line (A549) than by the cisplatin-resistant cell line (A549R). […] However, less than 1.5% of the cellular platinum was accumulated in the mitochondrial fraction of the A549R cells. Therefore, complex 4 could function in a different manner than cisplatin in A549R cells, which would be an appropriate solution to combat cisplatin resistance in tumor cells.
A549R cells were plated at a density of 1 × 10^5 cells/mL in 10 mL of DMEM for 24 h at 37 °C under 5% CO2 and 20% O2. […] The ruthenium or platinum contents were determined using inductively coupled plasma mass spectrometry (ICP-MS Thermo Elemental Co., Ltd.).

A549R MCTSs [5] = test: Growth inhibition of drug-treated MCTSs (size by imaging); assay type: cell-based, human; conditions: 100 μM
Source text: Traditional research on the efficacy of cancer drugs is usually performed in two-dimensional (2-D) cell cultures, which may not be a true indicator of the in vivo effectiveness of cancer treatments. This is in part due to the absence of cell-cell or cell-extracellular matrix interactions in 2-D cell models. Therefore, the development of cell culture models that can close the gap between conventional 2-D cell experiments and animal studies is necessary to study the cytotoxicity and anti-proliferative activities of drugs. Multicellular tumor spheroids (MCTSs) are heterogeneous cellular aggregates that have properties of solid tumors, such as nutrient and oxygen gradients, hypoxic/necrotic regions, cell-cell matrix interactions, and gene expression.
as §4, with “After formation of the MCTSs, each MCTS in a 96-well plate was imaged with a phase contrast microscope (Zeiss Axio Observer D1, Germany) using 10× objective to monitor their color, integrity, diameter, and volume.” left out

A549R cells [6] = test: Real-time cell growth and proliferation assay (xCELLigence); assay type: cell-based, human; conditions: 100 μM
Method: In addition, a real-time cell growth and proliferation assay using an xCELLigence System was utilized to confirm the high toxicity of complex 4 on A549R cells. […] In contrast, A549R cells were killed by treatment with complex 4 in a concentration-dependent manner.
This experiment was performed using an xCELLigence RTCA DP system real time cell analyzer (Roche Diagnostics GmbH, Germany). In brief, 80 μL of cell culture media was added to each well of a 16-well plate (E-plate 16, Roche Diagnostics GmbH, Germany). The 16-well plates were then connected to the system and checked for suitable electrical contacts in the real time cell analyzer, and the background impedance was measured for 24 s. Meanwhile, the A549R cells were suspended in cell culture medium and adjusted to 5 × 10^4 cells/mL, and 100 μL of each cell suspension was added to each well of […]. Approximately 24 h after seeding, the A549R cells were in the logarithmic phase of growth, and a wide range of concentrations of complex 4 and cisplatin (100 μM) were added. The cells were automatically monitored every 15 min over 48 h by the xCELLigence system. Data were analyzed using RTCA software (version 1.2) that was supplied with the instrument.

A549R cells [7] = test: Cell uptake study by ICP-MS; assay type: cell-based, human; conditions: 2.0 μM, 12 h
Method: as §5
The cells were plated at a density of 1 × 10^5 cells/mL in 10 mL of DMEM for 24 h at 37 °C under 5% CO2 and 20% O2, Ruthenium complexes (2.0 μM) and cisplatin were added to the culture medium and incubated for 12 h, and mixed with cold PBS and a trypsin-EDTA solution in a centrifuge tube for counting. Then, the nuclei and cytoplasm of the cells were extracted by using a Nuclear and Cytoplasmic Protein Extraction Kit (Life Technologies). The samples were digested in 20% HNO3 and 10% H2O2 at room temperature overnight. Each sample was then diluted with Milli-Q water to obtain 2% HNO3 sample solutions. Ruthenium contents were determined using inductively coupled plasma mass spectrometry (ICP-MS Thermo Elemental Co., Ltd.).

Compound	IC50 (A549)	IC50 (A549R MCTSs [1])	log Po/w [2]	IC50 [3]	IC50 (LO2)	IC50 (HeLa)	IC50 (A549R)	share of cellular metal accumulated in the mitochondrial fraction (A549R cells [4])	change in size of A549R MCTSs (A549R MCTSs [5])	effect on A549R cells compared to the control (xCELLigence) (A549R cells [6])	share of the compound taken up by A549R cells (A549R cells [7]; A549R)	platinum level in A549 cells relative to A549R cells (A549R cells [7]; A549 vs A549R)
[Ru+2].c1ccc(-c2nc3c4cccnc4c4ncccc4c3[nH]2)cc1.c1cnc2c(c1)ccc1cccnc12.c1cnc2c(c1)ccc1cccnc12 [Complex 1, [Ru(phen)2(PIP)]^2+]	> 100 µM	> 100 µM	negative	> 100 µM	> 100 µM	> 100 µM	> 100 µM	–	–	–	–	–
FC(F)(F)c1ccc(-c2nc3c4cccnc4c4ncccc4c3[nH]2)cc1.[Ru+2].c1cnc2c(c1)ccc1cccnc12.c1cnc2c(c1)ccc1cccnc12 [Complex 2]	43.4 ± 5.3 µM	95.7 µM	moderate	–	75.8 ± 7.5 µM	55.4 ± 3.1 µM	48.2 ± 2.7 µM	–	–	–	–	–
N.N.[Cl][Pt][Cl] [cisplatin]	21.3 ± 3.3 µM	> 200 µM	–	–	18.9 ± 2.6 µM	15.1 ± 2.1 µM	142 ± 5.4 µM	less than 1.5%	increased with time	negative effect	less than 1%	ca. 4 fold
Ru(phen)2(tbtfpip)(PF6)2 [Complex 3]	28.6 ± 2.6 µM	60.6 ± 5.5 µM	moderate	–	45.6 ± 3.8 µM	22.5 ± 3.3 µM	32.2 ± 1.5 µM	–	–	–	–	–
